According to patent publication US20230265151A1, “GIP/GLP1 CO-AGONIST COMPOUNDS” (priority 2020, published 2023):
Where two headings read alike, the source gives them in different places.

Key:
Assay type in all cases: cell-based
[1] = biological target: hGLP-1R (Homo sapiens, UniProt P43220); assay: Functional cAMP formation (HTRF) in HEK-293 clonal cells expressing hGLP-1R, 0.1% bovine casein, without or with 1.0% human serum albumin; parameters: expressed in transfected cells; settings: for EC50: geometric mean, read-out: hGLP-1R EC50, nM (SEM, n); for Emax: read-out: hGLP-1R Emax, % ± SEM
hGLP-1R, sequence (P43220 24-463): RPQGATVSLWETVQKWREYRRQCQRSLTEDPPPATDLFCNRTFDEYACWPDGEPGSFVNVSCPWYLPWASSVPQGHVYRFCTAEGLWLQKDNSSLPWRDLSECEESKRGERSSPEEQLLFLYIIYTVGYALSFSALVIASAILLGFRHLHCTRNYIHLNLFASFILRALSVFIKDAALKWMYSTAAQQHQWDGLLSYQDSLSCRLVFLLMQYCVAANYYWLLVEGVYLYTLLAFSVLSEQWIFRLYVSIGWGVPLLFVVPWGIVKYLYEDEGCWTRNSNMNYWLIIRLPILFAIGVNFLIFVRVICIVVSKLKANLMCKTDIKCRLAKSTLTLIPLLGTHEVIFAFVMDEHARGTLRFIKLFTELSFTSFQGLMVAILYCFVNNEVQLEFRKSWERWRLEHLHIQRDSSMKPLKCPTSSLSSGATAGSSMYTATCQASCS
Method in brief: (§1)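 Readings of the HTRF 665/620 nm ratio, which falls as cAMP rises, were converted to nM cAMP using a standard curve after 30 min peptide exposure at 37° C.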

[2] = biological target: T1, hGCGR (Homo sapiens, UniProt P47871); assay: Functional cAMP formation (HTRF) in HEK-293 clonal cells expressing hGCGR, 0.1% bovine casein, without or with 1.0% human serum albumin; settings: geometric mean, read-out: hGCGR EC50, nM (SEM, n)
T1 construct: expressed in transfected cells
T1 sequence (P47871 26-477): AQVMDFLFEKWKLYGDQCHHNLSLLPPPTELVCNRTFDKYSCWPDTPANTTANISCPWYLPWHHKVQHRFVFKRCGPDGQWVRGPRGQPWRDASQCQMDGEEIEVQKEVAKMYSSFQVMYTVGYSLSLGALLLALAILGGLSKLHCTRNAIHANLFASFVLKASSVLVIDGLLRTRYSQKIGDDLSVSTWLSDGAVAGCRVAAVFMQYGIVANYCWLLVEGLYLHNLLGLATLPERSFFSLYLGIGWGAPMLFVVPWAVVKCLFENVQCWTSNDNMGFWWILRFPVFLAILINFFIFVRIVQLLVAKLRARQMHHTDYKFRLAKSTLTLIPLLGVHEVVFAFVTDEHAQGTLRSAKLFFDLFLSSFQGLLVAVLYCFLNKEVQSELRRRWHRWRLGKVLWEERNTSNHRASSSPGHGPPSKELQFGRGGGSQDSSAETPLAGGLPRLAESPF
Method in brief: as §1

[3] = biological target: T2, hGIPR (Homo sapiens, UniProt P48546); assay: Functional cAMP formation (HTRF) in HEK-293 clonal cells expressing hGIPR, 0.1% bovine casein, without or with 1.0% human serum albumin; settings: for EC50: geometric mean, read-out: hGIPR EC50, nM (SEM, n); for Emax: read-out: hGIPR Emax, % ± SEM
T2 construct: expressed in transfected cells
T2 sequence (P48546 22-466): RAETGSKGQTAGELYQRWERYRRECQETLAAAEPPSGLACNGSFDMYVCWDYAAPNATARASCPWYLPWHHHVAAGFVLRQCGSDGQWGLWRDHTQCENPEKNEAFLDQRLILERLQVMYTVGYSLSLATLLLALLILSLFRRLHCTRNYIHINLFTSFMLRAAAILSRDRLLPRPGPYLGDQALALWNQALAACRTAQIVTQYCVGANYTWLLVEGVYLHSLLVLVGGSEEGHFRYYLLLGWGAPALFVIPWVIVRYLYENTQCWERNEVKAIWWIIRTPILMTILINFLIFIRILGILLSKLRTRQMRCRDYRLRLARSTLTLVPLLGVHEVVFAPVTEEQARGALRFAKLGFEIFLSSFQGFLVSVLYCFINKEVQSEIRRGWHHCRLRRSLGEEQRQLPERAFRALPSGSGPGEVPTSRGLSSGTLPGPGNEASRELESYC
Method in brief: as §1

[4] = 0.1% bovine casein and 1.0% human serum albumin, 37° C.
[5] = HEK293, 0.1% bovine casein and 1.0% human serum albumin, 37° C., percent of maximal response to GLP-1(7-36)NH2
[6] = HEK293, percent of maximal response to GLP-1(7-36)NH2, 37° C., 0.1% bovine casein, arithmetic mean
[7] = cAMP, incubated at 37° C., 0.1% bovine casein (no human serum albumin)
[8] = HEK293, 0.1% bovine casein and 1.0% human serum albumin, 37° C., percent of maximal response to GIP(1-42)NH2
[9] = HEK293, percent of maximal response to GIP(1-42)NH2, 37° C., 0.1% bovine casein, arithmetic mean

Row | Compound | EC50 [1, 4] [nM] | Emax [1, 5] [%] | Emax [1, 6] [%] | EC50 [1, 7] [nM] | EC50 [2, 4] [nM] | EC50 [2, 7] [nM] | EC50 [3, 4] [nM] | Emax [3, 8] [%] | Emax [3, 9] [%] | EC50 [3, 7] [nM]
1 | CC[C@H](C)[C@H](NC(=O)[C@H](CCCN)NC(=O)[C@H](CC(=O)O)NC(=O)[C@H](CC(C)C)NC(=O)[C@](C)(CC(C)C)NC(=O)[C@@H](NC(=O)[C@H](CO)NC(=O)[C@H](Cc1ccncc1)NC(=O)[C@H](CC(=O)O)NC(=O)[C@H](CO)NC(=O)[C@@H](NC(=O)[C@](C)(Cc1ccccc1F)NC(=O)[C@@H](NC(=O)CNC(=O)[C@H](CCC(=O)O)NC(=O)C(C)(C)NC(=O)[C@@H](N)Cc1ccc(O)cc1)[C@@H](C)O)[C@@H](C)O)[C@@H](C)CC)C(=O)N[C@@H](C)C(=O)N[C@@H](CCC(N)=O)C(=O)NC(C)(C)C(=O)N[C@@H](CCCCNC(=O)COCCOCCNC(=O)COCCOCCNC(=O)CCCCCCCCCCCCC(=O)O)C(=O)N[C@@H](Cc1ccccc1)C(=O)N[C@H](C(=O)N[C@H](CCC(=O)O)C(=O)N[C@@](C)(Cc1ccc(O)cc1)C(=O)N[C@@H](CC(C)C)C(=O)N[C@H](C(=O)N[C@@H](CCC(=O)O)C(=O)NCC(=O)NCC(=O)N1CCC[C@H]1C(=O)N[C@@H](CO)C(=O)N[C@@H](CO)C(=O)NCC(=O)N[C@@H](C)C(=O)N1CCC[C@H]1C(=O)N1CCC[C@H]1C(=O)N1CCC[C@H]1C(=O)N[C@@H](CO)C(=O)N[C@@H](CCCCNC(=O)COCCOCCNC(=O)COCCOCCNC(=O)CCCCCCCCCCCCC(=O)O)C(N)=O)[C@@H](C)CC)[C@@H](C)CC [Example 196] | 21.4 | 112 ± 4.62 | 96.8 ± 2.59 | 0.356 | > 9950 | > 9950 | 0.712 | 80.8 ± 0.269 | 96 ± 2.1 | 0.0232
2 | CC[C@H](C)[C@H](NC(=O)[C@H](CCCN)NC(=O)[C@H](CC(=O)O)NC(=O)[C@H](CC(C)C)NC(=O)[C@](C)(CC(C)C)NC(=O)[C@@H](NC(=O)[C@H](CO)NC(=O)[C@H](Cc1ccncc1)NC(=O)[C@H](CC(=O)O)NC(=O)[C@H](CO)NC(=O)[C@@H](NC(=O)[C@](C)(Cc1ccccc1F)NC(=O)[C@@H](NC(=O)CNC(=O)[C@H](CCC(=O)O)NC(=O)C(C)(C)NC(=O)[C@@H](N)Cc1ccc(O)cc1)[C@@H](C)O)[C@@H](C)O)[C@@H](C)CC)C(=O)N[C@@H](C)C(=O)N[C@@H](CCC(N)=O)C(=O)NC(C)(C)C(=O)N[C@@H](CCC(=O)O)C(=O)N[C@@H](Cc1ccccc1)C(=O)N[C@H](C(=O)N[C@@H](CCCCNC(=O)[C@@H](N)CCCCNC(=O)CC[C@H](NC(=O)CCCCCCCCCCCCC(=O)O)C(=O)O)C(=O)N[C@@](C)(Cc1ccc(O)cc1)C(=O)N[C@@H](CC(C)C)C(=O)N[C@H](C(=O)N[C@@H](CCC(=O)O)C(=O)NCC(=O)NCC(=O)N[C@@H](CCCCNC(=O)[C@@H](N)CCCCNC(=O)CC[C@H](NC(=O)CCCCCCCCCCCCC(=O)O)C(=O)O)C(=O)N[C@@H](CO)C(=O)N[C@@H](CO)C(=O)NCC(=O)N[C@@H](C)C(=O)N1CCC[C@H]1C(=O)N1CCC[C@H]1C(=O)N1CCC[C@H]1C(=O)N[C@@H](CO)C(N)=O)[C@@H](C)CC)[C@@H](C)CC [Example 197] | 26.2 |  |  | 0.336 | > 9950 | > 9950 | 2.06 | 84.5 ± 4.08 |  | 0.0338
3 | CC[C@H](C)[C@H](NC(=O)[C@H](CCCN)NC(=O)[C@H](CC(=O)O)NC(=O)[C@H](CC(C)C)NC(=O)[C@](C)(CC(C)C)NC(=O)[C@@H](NC(=O)[C@H](CO)NC(=O)[C@H](Cc1ccncc1)NC(=O)[C@H](CC(=O)O)NC(=O)[C@H](CO)NC(=O)[C@@H](NC(=O)[C@](C)(Cc1ccccc1F)NC(=O)[C@@H](NC(=O)CNC(=O)[C@H](CCC(=O)O)NC(=O)C(C)(C)NC(=O)[C@@H](N)Cc1ccc(O)cc1)[C@@H](C)O)[C@@H](C)O)[C@@H](C)CC)C(=O)N[C@@H](C)C(=O)N[C@@H](CCC(N)=O)C(=O)NC(C)(C)C(=O)N[C@@H](CCC(=O)O)C(=O)N[C@@H](Cc1ccccc1)C(=O)N[C@H](C(=O)N[C@@H](CCCCNC(=O)[C@@H](N)CCCCNC(=O)[C@@H](N)CCCCNC(=O)CC[C@H](NC(=O)CCCCCCCCCCCCC(=O)O)C(=O)O)C(=O)N[C@@](C)(Cc1ccc(O)cc1)C(=O)N[C@@H](CC(C)C)C(=O)N[C@H](C(=O)N[C@@H](CCC(=O)O)C(=O)NCC(=O)NCC(=O)N[C@@H](CCCCNC(=O)[C@@H](N)CCCCNC(=O)[C@@H](N)CCCCNC(=O)CC[C@H](NC(=O)CCCCCCCCCCCCC(=O)O)C(=O)O)C(=O)N[C@@H](CO)C(=O)N[C@@H](CO)C(=O)NCC(=O)N[C@@H](C)C(=O)N1CCC[C@H]1C(=O)N1CCC[C@H]1C(=O)N1CCC[C@H]1C(=O)N[C@@H](CO)C(N)=O)[C@@H](C)CC)[C@@H](C)CC [Example 198] | 14.5 |  |  | 0.362 | > 9950 | > 9950 |  | 83.1 ± 3.45 | 94 ± 1.17 | 0.0269
4 | CC[C@H](C)[C@H](NC(=O)[C@H](CC(C)C)NC(=O)[C@](C)(Cc1ccc(O)cc1)NC(=O)[C@@H](CCC(=O)O)NC(=O)[C@@H](NC(=O)[C@H](Cc1ccccc1)NC(=O)[C@H](CCC(=O)O)NC(=O)C(C)(C)NC(=O)[C@H](CCC(N)=O)NC(=O)[C@H](C)NC(=O)[C@H](CCCCNC(=O)COCCOCCNC(=O)COCCOCCNC(=O)CC[C@H](NC(=O)CCCCCCCCCCCCC(=O)O)C(=O)O)NC(=O)[C@H](CCCN)NC(=O)[C@H](CC(=O)O)NC(=O)[C@H](CC(C)C)NC(=O)[C@](C)(CC(C)C)NC(=O)[C@@H](NC(=O)[C@H](CN)NC(=O)[C@H](Cc1ccncc1)NC(=O)[C@H](CC(=O)O)NC(=O)[C@H](CO)NC(=O)[C@@H](NC(=O)[C@](C)(Cc1ccccc1F)NC(=O)[C@@H](NC(=O)CNC(=O)[C@H](CCC(=O)O)NC(=O)C(C)(C)NC(=O)[C@@H](N)Cc1ccc(O)cc1)[C@@H](C)O)[C@@H](C)O)[C@@H](C)CC)[C@@H](C)CC)C(=O)N[C@@H](CCC(=O)O)C(=O)NCC(=O)NCC(=O)N[C@@H](CCCCNC(=O)COCCOCCNC(=O)COCCOCCNC(=O)CC[C@H](NC(=O)CCCCCCCCCCCCC(=O)O)C(=O)O)C(=O)N[C@@H](CO)C(=O)N[C@@H](CO)C(=O)NCC(=O)N[C@@H](C)C(=O)N1CCC[C@H]1C(=O)N1CCC[C@H]1C(=O)N1CCC[C@H]1C(=O)N[C@@H](CO)C(N)=O [Example 199] |  | 100 | 96.7 ± 6.69 |  | > 9950 | > 9950 |  | 77.1 | 96.9 ± 1.48 | 0.0587
